Results as given in patent US12533333B2, “Method of treatment of obesity” (Queen Mary University of London, priority 2016, dated 2026).
Entries after “also recorded” stand apart in the source; their conditions may differ.

Assays:
phosphorylated CaMKII [1] = settings: via GPR120, not via pERK; background; cited from earlier work
phosphorylated CaMKII [2] = experiment: pCaMKII activation in human colonic mucosa / proximal colon; type: cell-based; settings: 100 MM (heading of Example 6), FIG. 9
phosphorylated ERK [3] = experiment: pERK activation in human colonic mucosa / proximal colon; type: cell-based
[4] = in vivo; cited from earlier work
[5] = infused into the small intestine through a nasogastric tube; cited from earlier work
phosphorylated ERK [6] = settings: human colonic mucosa / enteroendocrine cells, previously shown; cited from earlier work

CC/C=C\C/C=C\C/C=C\CCCCCCCC(=O)O [ALA, (9Z,12Z,15Z)-9,12,15-Octadecatrienoic acid]
activation of pCalmodulin kinase II (pCAMKII) (phosphorylated CaMKII [1]): activate | expression of cell activation marker pCamKii (phosphorylated CaMKII [2]): potently induce expression; also recorded: activate | expression of cell activation marker pERK (phosphorylated ERK [3]; human colonic mucosa, 100 MM (heading of Example 6), FIG. 9): potently induce expression; also recorded: activate

c1ccc2c(Cc3c[nH]c4ccccc34)c[nH]c2c1 [DIM, 3,3′-diindolylmethane]
activation of pERK in colonocytes (phosphorylated ERK [3]; in combination with GPR120 agonist TUG891 and GPR84 agonist lauric acid (FIG. 8)): potently activates

CCCCCCCCCCCC(=O)O [lauric acid]
plasma levels of glucagon-like peptide-1 (GLP-1) [4]: increasing | plasma levels of peptide YY (PYY) [4]: increasing | food intake [5]: reduces food intake more potently than other fatty acids | activation of intracellular pathway as measured by phosphorylated ERK (phosphorylated ERK [6]): activates
